These results are taken from US20260315446A1, “ANTIFUNGAL COMPOUNDS AND USES THEREOF” (priority 2023, published 2026).

≈ marks a conversion by molar mass, not a printed value. Entries after “also recorded” stand apart in the source; their conditions may differ. Like-named read-outs stand apart in the source and are kept apart here.

One may read the MIC as the lowest concentration that inhibits growth of the organism. In general, IC50 refers to the concentration that inhibits the measured activity by half.

The subject of one test is C. neoformans. The test is described as follows: MIC assay (Example 4). Format: cell-based, Cryptococcus neoformans. Conditions: Cryptococcus neoformans. As to the method:
Both JH-FK-10 and JH-FK-11 maintained in vitro antifungal activity against C. neoformans with MICs of 0.8 and 1.6 μg/mL, respectively (Table 11).
In vitro antifungal activity of FK506, FK520, and analogs was assessed in RPMI 1640 (Sigma-Aldrich) for all strains tested. Minimum inhibitory concentrations (MIC) for each drug were measured using modified Clinical and Laboratory Standards Institute (CLSI) M38-A2 and M27-A3 standard in vitro antifungal susceptibility protocols. Broth microdilution assays for MIC assessment were performed as previously described. All antifungal assays with C. neoformans were performed at 37° C.

The subject of test [1] is IL-2 expression in primary murine CD4+ T cells. The test is described as follows: In vitro immunosuppressive activity, IL-2 expression (Example 4). Format: cell-based, mouse. As to the method: Spleen and lymph nodes were collected from C57BL/6 mice and homogenized through a 40 μm filter. Pan-CD4^+ T cells were enriched using MagniSort Mouse CD4 T cell Kit (eBioscience) according to the manufacturer's protocol. Thereafter, CD4+CD25−CD44lo CD62Lhi naïve T cells were FACS-sorted. The naïve CD4+ T cells were grown in Iscove's Modified Dulbecco's Medium (IMDM) supplemented with glutamine, penicillin, streptomycin, gentamicin, 2-mercaptoethanol, and 10% FBS. Cells were then cultured on anti-hamster IgG coated plates in the presence of hamster anti-CD3 epsilon and anti-CD28 antibodies (BD Biosciences), neutralizing anti-IL-4 antibody (eBioscience), recombinant IL-12 (10 ng/mL), and recombinant IL-2 (50 U/mL) for 72 h. During this period, cells were grown in the presence of 2× serially diluted FK506, FK520, or analog suspended in DMSO for 72 h. During the last 4 h of culture, phorbol 12-myristate 13-acetate (PMA; Sigma), ionomycin (Sigma), and GolgiStop (BD Biosciences) were added to the culture to facilitate detection of intracellular cytokines via flow cytometry.
Live cells were stained with FITC-conjugated anti-CD4 antibody (eBioscience) and Fixable Viability Dye eFluor 506 (eBioscience) on ice, followed by fixation and permeabilization using the Foxp3 Transcription Factor Staining Kit (eBioscience). Intracellular staining was performed at room temperature using PE-conjugated anti-IL-2 antibody (eBioscience), followed by analysis with a BD LSRFortessa X-20 flow cytometer.

The test system of the next test is fungi. Conditions: listed as L-685,818; cited from earlier work.
For a further test, the system named is immunosuppression. Conditions: listed as L-685,818; cited from earlier work.
Test [2] relates to C. neoformans H99. The test is described as follows: Intranasal model of pulmonary cryptococcosis, lung fungal burden (Example 1). Format: in vivo, Cryptococcus neoformans in A/J mice. Conditions: day 14; fluconazole 12 mg/kg i.p. daily.
Experimental: First, in the intranasal model, animals were anesthetized and infected with 10^5 cells of wild-type H99 C. neoformans via instillation in the animal's nares. These animals were monitored for 14 days and then sacrificed. This model tests the efficacy of JH-FK-05 to treat a pulmonary infection, which is the most common manifestation of early-stage cryptococcosis in patients. […] In both models, animals were treated once daily via i.p. injection beginning 3 h after infection with either vehicle, 60 mg/kg JH-FK-05, 12 mg/kg fluconazole, or a combination of the two monotherapies.
Wild-type H99 C. neoformans cells were grown overnight at 30° C. in a roller drum in yeast extract-peptone-dextrose (YPD) medium. […] H99 cells were counted with a hemacytometer and diluted to 2×10^6 cells/mL in PBS for the pulmonary model and 2×10^5 cells/mL in PBS for the disseminated model.
Female A/J mice (3 to 4 weeks old; Jackson Laboratory) were anesthetized utilizing an isoflurane chamber. […] After 14 days, animals were either sacrificed for fungal burden analysis or monitored for health and survival until reaching a humane endpoint.
Mice were euthanized by CO2 inhalation at the predetermined experimental endpoint. […] A 100-μL aliquot of each dilution was plated on antibiotic plates (YPD, 50 μg/mL ampicillin, and 30 g/mL chloramphenicol), incubated for 48 to 72 h at 30° C., and assessed for CFU. […]
Test [3] has as its system C. neoformans H99. The test is described as follows: Survival in intranasal cryptococcosis model (Example 1). Type of test: in vivo, Cryptococcus neoformans in A/J mice. Conditions: 14 days treatment; JH-FK-05 60 mg/kg, fluconazole 12 mg/kg, i.p. daily. As to the method:
To verify if this reduction seen in the fungal burdens of JH-FK-05 and combination-treated animals could translate into a meaningful therapeutic effect, the survival of animals infected via the intranasal route was assessed (FIG. 8A). As in the fungal burden model, these animals received daily treatment for only 14 days. Following the termination of treatment, animals were monitored for signs of decline, lethargy, and ultimately, moribundity. Untreated animals in this model typically survive for about 3 weeks, and similar results were observed here (vehicle treatment median survival, 22 days). Corroborating the results of the fungal burden study, a significant extension of survival for both JH-FK-05 (median survival, 26 days) and fluconazole (median survival, 25 days) was observed.
Female A/J mice (3 to 4 weeks old; Jackson Laboratory) were anesthetized utilizing an isoflurane chamber. While anesthetized, […] of 2×10^6 cells/mL suspension was dripped onto the nares of mice, allowing them to inhale the full inoculum. Treatment began 3 h following infection with i.p. dosing of vehicle, 60 mg/kg JH-FK-05, 12 mg/kg fluconazole, or combination. […] After 14 days, animals were either sacrificed for fungal burden analysis or monitored for health and survival until reaching a humane endpoint. […] Statistical significance was determined using log-rank (Mantel-Cox) tests.

Test [4] has as its system C. neoformans strain H99. The test is described as follows: Murine cryptococcal infection, lung fungal burden (Example 3). Format: in vivo, Cryptococcus neoformans in A/J mice. Conditions: JH-FK-08 40 mg/kg. The protocol: In vivo antifungal activity and therapeutic benefit were assayed by investigating the impact of the FK520 analog on organ fungal burden during cryptococcosis. Specifically, the in vivo efficacy of JH-FK-08 on fungal burden was assessed using A/J female mice. Immunodeficient A/J mice were selected in part due to their defect in complement component five and their susceptibility to cryptococcal infection. Treatment groups included vehicle of 10% Kolliphor: ethanol (1:1) in phosphate-buffered saline (PBS), […], or the fluconazole and JH-FK-08 combination, […] infection. […] Mice were intranasally infected with C. neoformans strain H99, and fungal burden in the lung, spleen, and brain was assessed after 14 days of treatment.
(§1) C. neoformans inoculum was prepared by growing a 5-mL overnight YPD culture spinning in a tissue culture roller drum at 30° C. Cells were pelleted by centrifugation and washed in sterile PBS three times. Cell density was determined by hemocytometer, and cells were diluted to 2×10^6 cells/mL. Mice (10 to 20 g) were infected with 10^5 cells of C. neoformans H99. For inhalation infection, animals were anesthetized with isoflurane before 50 μL of inoculum was pipetted onto the upright nasal passages of each animal. Following inhalation of the inoculum, animals were monitored for post anesthesia recovery. Treatment of animals began 4 hours post infection and was continued for 14 days. Fungal burden was assessed 24 h after the final dose.
For survival curve analysis, animals were monitored until reaching defined humane end points, including social isolation, hunched posture, weight loss, lack of grooming, and labored breathing, and were then euthanized via CO2 inhalation. […] One hundred microliters of each dilution was plated on YPD plates supplemented with YPD 50 μg/mL ampicillin and 30 μg/mL chloramphenicol, incubated at 30° C. for 2 days, and assessed for colony-forming units. CFU per organ weight was calculated and plotted using GraphPad Prism 9.

In test [5] the test system is C. neoformans strain H99. The test is described as follows: Murine cryptococcal infection, brain fungal burden (Example 3). Format: in vivo, Cryptococcus neoformans in A/J mice. Conditions: 14 days; fluconazole 6 mg/kg, JH-FK-08 40 mg/kg, i.p. twice per day. As to the method:
(§2) In vivo antifungal activity and therapeutic benefit were assayed by investigating the impact of the FK520 analog on organ fungal burden during cryptococcosis. Specifically, the in vivo efficacy of JH-FK-08 on fungal burden was assessed using A/J female mice. Immunodeficient A/J mice were selected in part due to their defect in complement component five and their susceptibility to cryptococcal infection. Treatment groups included vehicle of 10% Kolliphor: ethanol (1:1) in phosphate-buffered saline (PBS), 6 mg/kg fluconazole, 40 mg/kg JH-FK-08, or the fluconazole and JH-FK-08 combination, all given via intraperitoneal (i.p.) injection twice per day beginning at 4 hours post infection. […] Mice were intranasally infected with C. neoformans strain H99, and fungal burden in the lung, spleen, and brain was assessed after 14 days of treatment.
(§3) C. neoformans inoculum was prepared by growing a 5-mL overnight YPD culture spinning in a tissue culture roller drum at 30° C. Cells were pelleted by centrifugation and washed in sterile PBS three times. Cell density was determined by hemocytometer, and cells were diluted to 2×10^6 cells/mL. Mice (10 to 20 g) were infected with 10^5 cells of C. neoformans H99. […] Following inhalation of the inoculum, animals were monitored for post anesthesia recovery. […] Fungal burden was assessed 24 h after the final dose. […]

Test [6] has as its system C. neoformans strain H99. The test is described as follows: Murine cryptococcal infection, spleen fungal burden (Example 3). Type of test: in vivo, Cryptococcus neoformans in A/J mice. Conditions: 14 days; fluconazole 6 mg/kg, JH-FK-08 40 mg/kg, i.p. twice per day. The protocol: as §2, §3
Test [7] deals with C. neoformans strain H99. The test is described as follows: Survival during cryptococcal infection (Example 3). Type of test: in vivo, Cryptococcus neoformans in A/J mice. Conditions: 2 weeks twice daily i.p.; fluconazole 6 mg/kg, JH-FK-08 40 mg/kg; vehicle 16 days. The protocol:
Finally, whether the antifungal efficacy translates into extended survival during infection was assessed. To test the impact of treatment on survival, murine survival was monitored in the cryptococcosis infection model. Following the same protocol of infection and dosing as in the fungal burden experiment, animal survival was monitored following infection and 2 weeks of intraperitoneal dosing. Fluconazole treatment extended median survival from 16 to 27 days.
as §1
For survival curve analysis, animals were monitored until reaching defined humane end points, including social isolation, hunched posture, weight loss, lack of grooming, and labored breathing, and were then euthanized via CO2 inhalation. For fungal burden analysis, mice were euthanized following 2 weeks of treatment with a designated antifungal, vehicle, or combination. Brain, lung, and spleen were harvested from animals, weighed, and homogenized in sterile PBS using steel beads and a bead beater. Each organ homogenate was serially diluted 10-fold to 10-4 in PBS. One hundred microliters of each dilution was plated on YPD plates supplemented with YPD 50 μg/mL ampicillin and 30 μg/mL chloramphenicol, incubated at 30° C. for 2 days, and assessed for colony-forming units. CFU per organ weight was calculated and plotted using GraphPad Prism 9.

As for `CC[C@@H]1/C=C(\C)C(O)[C@H](C)C[C@H](OC)[C@H]2O[C@@](O)(C(=O)C(=O)N3CCCC[C@H]3C(=O)O[C@H](/C(C)=C/[C@@H]3CC[C@@H](O)[C@H](OC)C3)[C@H](C)[C@@H](O)CC1=O)[C@H](C)C[C@@H]2OC` (single isomer, unassigned) [JH-FK-11], the MIC in the test on C. neoformans (37° C., Table 13, read-out: C. neoformans MIC) is 1.6 µg/mL (≈ 1.98 µM); in the test on C. neoformans (read-out: C. neoformans MIC, 37° C., Table 11), 3.2 µg/mL (≈ 3.96 µM); in the test with C. neoformans (read-out: C. neoformans MIC, 37° C., Table 12), 1.6 µg/mL (≈ 1.98 µM). Besides, the “immunosuppressive activity” value in test [1] is recorded as “detectable immunosuppressive activities; also recorded: significantly reduced for immunosuppressive activity compared to its FK506 counterpart JH-FK-10”. The compound also came in with an IC50 in test [1] (Mus musculus, CD4+ T, Table 12) of 41.4 nM. The “antifungal activity” value in the test on fungi was “robust antifungal activity; also recorded: broad-spectrum antifungal activity”. Besides, in the test with immunosuppression, the “immunosuppression” value is on record as “non-immunosuppressive; also recorded: reduced for immunosuppression in vitro”.
In the case of `OC(Cn1cncn1)(Cn1cncn1)c1ccc(F)cc1F` [fluconazole, reference compound], the “lung fungal burden” value with C. neoformans H99 [2] was “did not reduce the fungal burden”. Further, the median survival was determined as 25 days in the test on C. neoformans H99 [3] and 27 days in the test with C. neoformans strain H99 [7]. In addition, the “reduction of lung fungal burden” value with C. neoformans strain H99 [4] (14 days, fluconazole 6 mg/kg, i.p. twice per day) was ~ 6 fold. Moreover, the “lung fungal burden reduction” value in the test with C. neoformans strain H99 [4] (once daily, fluconazole 12 mg/kg) is recorded as “limited efficacy in reducing lung fungal burden”. For the same compound, in the test on C. neoformans strain H99 [5], the “brain fungal burden” value is reported as “no detectable fungal burden”. In addition, the “spleen fungal burden” value in the test with C. neoformans strain H99 [6] is on record as “no detectable fungal burden”.
